From US6437184B1, “Oxime compounds, their use, and intermediates for their production” (Sumitomo Chemical Company, Limited, priority 1997, dated 2002)

test system: Plutella xylostella; experiment: Insecticidal test against Plutella xylostella; assay type: in vivo; conditions: 96 h
Experimental: To a water dilution (50 ppm) of a test compound formulation obtained according to Formulation Example 1 was added a spreading agent (New RINOU available from Nihon Noyaku K.K.) at a dilution ratio of 3000-fold. The dilution was sprayed over potted cabbages at the four to five leaf stage at a volume of 25 ml per pot. After the treated plants were air dried, ten third-instar larvae of Plutella xylostella were set free on each pot. After 4 days, the mortality was determined.

With `CC(COCCCCCOc1c(Cl)cc(OCC=C(Cl)Cl)cc1Cl)=NOC(=O)NC(C)(C)C` [(180), 5-(2,6-dichloro-4-(3,3-dichloro-2-propenyloxy)phenoxy)pentyloxyacetone O-(N-tert-butylcarbamoyl)oxime] as the compound, how does the mortality at 50 µg/mL read?
The mortality at 50 µg/mL was at least 80%.

same assay, conditions: 96 h, 50 ppm water dilution sprayed over potted cabbages, 25 ml per pot, third-instar larvae, after 4 days, read-out: mortality

How did the mortality at 50 µg/mL turn out when `ClC(Cl)=CCON=CCCOc1c(Cl)cc(OCC=C(Cl)Cl)cc1Cl` [(75), 3-(2,6-dichloro-4-(3,3-dichloro-2-propenyloxy)phenoxy)propionaldehyde O-(3,3-dichloro-2-propenyl)oxime] was run?
The mortality at 50 µg/mL was at least 80%.

Which mortality at 50 µg/mL does the source give for `ClC(Cl)=CCON=Cc1ccc(OCCOc2c(Cl)cc(OCC=C(Cl)Cl)cc2Cl)cc1` [(281), 4-(2-(2,6-dichloro-4-(3,3-dichloro-2-propenyloxy)phenoxy)-ethoxy)benzaldehyde O-(3,3-dichloro-2-propenyl)oxime] here?
Its mortality at 50 µg/mL is at least 80%.

With `ClC(Cl)=CCON=Cc1ccc(OCCCCOc2c(Cl)cc(OCC=C(Cl)Cl)cc2Cl)cc1` [(285), 4-(4-(2,6-dichloro-4-(3,3-dichloro-2-propenyloxy)phenoxy)butyloxy)benzaldehyde O-(3,3-dichloro-2-propenyl)oxime] as the compound, how does the mortality at 50 µg/mL read?
Its mortality at 50 µg/mL is at least 80%.

With `CC(=NO)c1ccc(OCCCCCOc2c(Cl)cc(OCC=C(Cl)Cl)cc2Cl)cc1` [(334), 4′-(5-(2,6-dichloro-4-(3,3-dichloro-2-propenyloxy)phenoxy)-pentyloxy)acetophenone oxime] as the compound, how does the mortality at 50 µg/mL read?
Its mortality at 50 µg/mL is at least 80%.

Which mortality at 50 µg/mL does the source give for `CCCCC(=NO)c1cccc(OCCCOc2c(Cl)cc(OCC=C(Cl)Cl)cc2Cl)c1` [(336), 3′-(3-(2,6-dichloro-4-(3,3-dichloro-2-propenyloxy)phenoxy)propyloxy)valerophenone oxime] here?
The mortality at 50 µg/mL was at least 80%.

How did the mortality at 50 µg/mL turn out when `C=CCON=Cc1ccc(CCCOc2c(Cl)cc(OCC=C(Cl)Cl)cc2Cl)cc1` [(370), 4-(3-(2,6-dichloro-4-(3,3-dichloro-2-propenyloxy)phenoxy)propyl)benzaldehyde O-allyl oxime] was run?
Its mortality at 50 µg/mL is at least 80%.

For `FC(F)(F)c1ccc(C=NOCCCOc2c(Cl)cc(OCC=C(Cl)Cl)cc2Cl)cc1` [(524), 4-(trifluoromethyl)benzaldehyde O-(3-(2,6-dichloro-4-(3,3-dichloro-2-propenyloxy)phenoxy)propyl)oxime], which mortality at 50 µg/mL is on record?
Its mortality at 50 µg/mL is at least 80%.

`ClC(Cl)=CCOc1cc(Cl)c(OCCCCON=C2CCOCC2)c(Cl)c1` [(573), tetrahydro-4H-pyran-4-one O-(4-(2,6-dichloro-4-(3,3-dichloro-2-propenyloxy)phenoxy)butyl)oxime] was tested. Which mortality at 50 µg/mL did it give?
Its mortality at 50 µg/mL is at least 80%.

With `ClC(Cl)=CCOc1cc(Cl)c(OCCCCCON=C2CCOCC2)c(Cl)c1` [(574), tetrahydro-4H-pyran-4-one O-(5-(2,6-dichloro-4-(3,3-dichloro-2-propenyloxy)phenoxy)pentyl)oxime] as the compound, how does the mortality at 50 µg/mL read?
The mortality at 50 µg/mL was at least 80%.

test system: Cydia pomonella; experiment: Insecticidal test against Cydia pomonella; assay type: in vivo; conditions: 168 h, 100 ppm water dilution, 0.2 ml on surface of artificial diet, eggs just before hatching, after 7 days
Experimental: A water dilution (100 ppm) of a test compound formulation obtained according to Formulation Example 1 was added dropwise at a volume of 0.2 ml and spread over the surface of an artificial diet having a weight of 3 g, which had been prepared in a 30 ml polyethylene cup. After air drying, placed in the cup was a piece of wax paper (about 2.5 cm square) having about 20 eggs which had been laid by Cydia pomonella and were just before hatching. Four pieces of such wax paper were used for each treatment. After 7 days, the mortality of the larvae was determined.

`CCON=C(C)c1ccc(OCCCOc2c(Cl)cc(OCC=C(Cl)Cl)cc2Cl)cc1` [(293), 4′-(3-(2,6-dichloro-4-(3,3-dichloro-2-propenyloxy)phenoxy)propyloxy)acetophenone O-ethyloxime] was tested. Which mortality at 100 µg/mL did it give?
Its mortality at 100 µg/mL is at least 80%.

How did the mortality at 100 µg/mL turn out when `CCON=Cc1cccc(COc2c(Cl)cc(OCC=C(Cl)Cl)cc2Cl)c1` [(378), 3-((2,6-dichloro-4-(3,3-dichloro-2-propenyloxy)phenoxy)methyl)benzaldehyde O-ethyloxime] was run?
Its mortality at 100 µg/mL is at least 80%.

How did the mortality at 100 µg/mL turn out when `FC(F)(F)c1ccc(C=NOCCOc2c(Cl)cc(OCC=C(Cl)Cl)cc2Cl)cc1` [(550), 4-(trifluoromethyl)benzaldehyde O-(2-(2,6-dichloro-4-(3,3-dichloro-2-propenyloxy)phenoxy)ethyl)oxime] was run?
Its mortality at 100 µg/mL is at least 80%.

How did the mortality at 100 µg/mL turn out when `ClC(Cl)=CCOc1cc(Cl)c(OCCCCCON=C2CCSCC2)c(Cl)c1` [(572), tetrahydrothiopyran-4-one O-(5-(2,6-dichloro-4-(3,3-dichloro-2-propenyloxy)phenoxy)pentyl)oxime] was run?
Its mortality at 100 µg/mL is at least 80%.

How did the mortality at 100 µg/mL turn out when `ClC(Cl)=CCOc1cc(Cl)c(OCCCCCON=C2CCOCC2)c(Cl)c1` [(574), tetrahydro-4H-pyran-4-one O-(5-(2,6-dichloro-4-(3,3-dichloro-2-propenyloxy)phenoxy)pentyl)oxime] was run?
Its mortality at 100 µg/mL is at least 80%.

Which mortality at 100 µg/mL does the source give for `ClC(Cl)=CCOc1cc(Cl)c(OCCCCCCON=C2CCSCC2)c(Cl)c1` [(575), tetrahydrothiopyran-4-one O-(6-(2,6-dichloro-4-(3,3-dichloro-2-propenyloxy)phenoxy)hexyl)oxime] here?
Its mortality at 100 µg/mL is at least 80%.

Which mortality at 100 µg/mL does the source give for `O=[N+]([O-])c1ccc(C=NOCCCCOc2c(Cl)cc(OCC=C(Cl)Cl)cc2Cl)cc1` [(578), 4-nitrobenzaldehyde O-(4-(2,6-dichloro-4-(3,3-dichloro-2-propenyloxy)phenoxy)butyl)oxime] here?
Its mortality at 100 µg/mL is at least 80%.

For `CC(C)Oc1ccc(C=NOCCCCOc2c(Cl)cc(OCC=C(Cl)Cl)cc2Cl)cc1` [(579), 4-isopropoxybenzaldehyde O-(4-(2,6-dichloro-4-(3,3-dichloro-2-propenyloxy)phenoxy)butyl)oxime], which mortality at 100 µg/mL is on record?
Its mortality at 100 µg/mL is at least 80%.

test system: Helicoverpa armigera; experiment: Insecticidal test against Helicoverpa armigera; assay type: in vivo; conditions: 120 h, 100 ppm water dilution, cotton leaf fragment immersed 10 seconds, third-instar larvae, after 5 days
Experimental: A cotton leaf fragment (diameter, 5 cm) was immersed for 10 seconds Lin a water dilution (100 ppm) of a test compound formulation obtained according to Formulation Example 1. This fragment was taken out from the dilution, air dried, and placed in a polyethylene cup having a diameter of 5.5 cm. One third-instar larva of Helicoverpa armigera was set free in each cup. Ten larvae were used for each treatment. After 5 days, the mortality of the larvae was determined.

For `CC(C)(C)ON=CCOCCCCCOc1c(Cl)cc(OCC=C(Cl)Cl)cc1Cl` [(14), 5-(2,6-dichloro-4-(3,3-dichloro-2-propenyloxy)phenoxy)pentyloxyacetaldehyde O-tert-butyloxime], which mortality at 100 µg/mL is on record?
The mortality at 100 µg/mL was at least 80%.

Which mortality at 100 µg/mL does the source give for `ClC(Cl)=CCON=CCCCCOc1c(Cl)cc(OCC=C(Cl)Cl)cc1Cl` [(17), 5-(2,6-dichloro-4-(3,3-dichloro-2-propenyloxy)phenoxy)pentanal O-(3,3-dichloro-2-propenyl)oxime] here?
Its mortality at 100 µg/mL is at least 80%.

Which mortality at 100 µg/mL does the source give for `CCON=Cc1ccc(OCCCOc2c(Cl)cc(OCC=C(Cl)Cl)cc2Cl)cc1` [(288), 4-(3-(2,6-dichloro-4-(3,3-dichloro-2-propenyloxy)phenoxy)propyloxy)benzaldehyde O-ethyloxime] here?
Its mortality at 100 µg/mL is at least 80%.

How did the mortality at 100 µg/mL turn out when `CC(C)(C)ON=Cc1ccc(OCCCOc2c(Cl)cc(OCC=C(Cl)Cl)cc2Cl)cc1` [(291), 4-(3-(2,6-dichloro-4-(3,3-dichloro-2-propenyloxy)phenoxy)propyloxy)benzaldehyde O-t-butyloxime] was run?
The mortality at 100 µg/mL was at least 80%.

`CCON=C(C)c1ccc(OCCCOc2c(Cl)cc(OCC=C(Cl)Cl)cc2Cl)cc1` [(293), 4′-(3-(2,6-dichloro-4-(3,3-dichloro-2-propenyloxy)phenoxy)propyloxy)acetophenone O-ethyloxime] was tested. Which mortality at 100 µg/mL did it give?
The mortality at 100 µg/mL was at least 80%.

For `C=CCON=Cc1ccc(COc2c(Cl)cc(OCC=C(Cl)Cl)cc2Cl)cc1` [(312), 4-(2,6-dichloro-4-(3,3-dichloro-2-propenyloxy)phenoxymethyl)benzaldehyde O-(2-propenyl)oxime], which mortality at 100 µg/mL is on record?
Its mortality at 100 µg/mL is at least 80%.

With `CCC(C)ON=Cc1ccc(COc2c(Cl)cc(OCC=C(Cl)Cl)cc2Cl)cc1` (stereo not shown) [(329), 4-(2,6-dichloro-4-(3,3-dichloro-2-propenyloxy)phenoxy)methylbenzaldehyde O-sec-butyloxime] as the compound, how does the mortality at 100 µg/mL read?
The mortality at 100 µg/mL was at least 80%.

With `C=CCON=Cc1ccc(OCCCOc2c(Cl)cc(OCC=C(Cl)Cl)cc2Cl)cc1` [(342), 4-(3-(2,6-dichloro-4-(3,3-dichloro-2-propenyloxy)phenoxy)propyloxy)benzaldehyde O-allyloxime] as the compound, how does the mortality at 100 µg/mL read?
Its mortality at 100 µg/mL is at least 80%.

`CCC(C)ON=Cc1ccc(CCOc2c(Cl)cc(OCC=C(Cl)Cl)cc2Cl)cc1` (stereo not shown) [(355), 4-(2-(2,6-dichloro-4-(3,3-dichloro-2-propenyloxy)phenoxy)ethyl)benzaldehyde O-sec-butyloxime] was tested. Which mortality at 100 µg/mL did it give?
The mortality at 100 µg/mL was at least 80%.

With `C=CCON=Cc1ccc(CCOc2c(Cl)cc(OCC=C(Cl)Cl)cc2Cl)cc1` [(357), 4-(2-(2,6-dichloro-4-(3,3-dichloro-2-propenyloxy)phenoxy)ethyl)benzaldehyde O-allyloxime] as the compound, how does the mortality at 100 µg/mL read?
Its mortality at 100 µg/mL is at least 80%.

For `ClC(Cl)=CCON=Cc1ccc(CCOc2c(Cl)cc(OCC=C(Cl)Cl)cc2Cl)cc1` [(358), 4-(2-(2,6-dichloro-4-(3,3-dichloro-2-propenyloxy)phenoxy)ethyl)benzaldehyde O-(3,3-dichloro-2-propenyl)oxime], which mortality at 100 µg/mL is on record?
Its mortality at 100 µg/mL is at least 80%.

For `FC(F)(F)c1ccc(C=NOCCCCOc2c(Cl)cc(OCC=C(Cl)Cl)cc2Cl)cc1` [(529), 4-(trifluoromethyl)benzaldehyde O-(4-(2,6-dichloro-4-(3,3-dichloro-2-propenyloxy)phenoxy)butyl)oxime], which mortality at 100 µg/mL is on record?
The mortality at 100 µg/mL was at least 80%.

For `CC(=NOCCCCOc1c(Cl)cc(OCC=C(Cl)Cl)cc1Cl)c1ccc(C(F)(F)F)cc1` [(531), 4′-(trifluoromethyl)acetophenone O-(4-(2,6-dichloro-4-(3,3-dichloro-2-propenyloxy)phenoxy)butyl)oxime], which mortality at 100 µg/mL is on record?
Its mortality at 100 µg/mL is at least 80%.

For `CC(C)(C)C=NOCCCCCOc1c(Cl)cc(OCC=C(Cl)Cl)cc1Cl` [(545), trimethylacetaldehyde O-(5-(2,6-dichloro-4-(3,3-dichloro-2-propenyloxy)phenoxy)pentyl)oxime], which mortality at 100 µg/mL is on record?
The mortality at 100 µg/mL was at least 80%.

Which mortality at 100 µg/mL does the source give for `CC(=NOCCCCOc1c(Cl)cc(OCC=C(Cl)Cl)cc1Cl)C(C)(C)C` [(562), 3,3-dimethyl-2-butanone O-(4-(2,6-dichloro-4-(3,3-dichloro-2-propenyloxy)phenoxy)butyl)oxime] here?
Its mortality at 100 µg/mL is at least 80%.

How did the mortality at 100 µg/mL turn out when `CC(CC(C)C)=NOCCCCCOc1c(Cl)cc(OCC=C(Cl)Cl)cc1Cl` [(564), 4-methyl-2-pentanone O-(5-(2,6-dichloro-4-(3,3-dichloro-2-propenyloxy)phenoxy)pentyl)oxime] was run?
The mortality at 100 µg/mL was at least 80%.

test system: Musca domestica; experiment: Insecticidal test against Musca domestica; assay type: in vivo; conditions: 24 h
Experimental: In the bottom of a polyethylene cup having a diameter of 5.5 cm was placed a piece of filter paper having the same size. A 200-fold water dilution (500 ppm) of a test compound formulation obtained according to Formulation Example 1 was added dropwise at a volume of 0.7 ml on the filter paper, and about 30 mg of sucrose as a diet was uniformly placed thereon. Ten female adults of houseflies (Musca domestica) were set free in the cup, and the cup was kept covered. After 1 day, the survival of the adults was determined to determine the mortality.

How did the mortality at 500 µg/mL turn out when `CC(COCCCCCOc1c(Cl)cc(OCC=C(Cl)Cl)cc1Cl)=NOC(=O)NC(C)(C)C` [(180), 5-(2,6-dichloro-4-(3,3-dichloro-2-propenyloxy)phenoxy)pentyloxyacetone O-(N-tert-butylcarbamoyl)oxime] was run?
The mortality at 500 µg/mL was at least 80%.

same assay, conditions: 24 h, 500 ppm water dilution, 0.7 ml on filter paper with sucrose, female adults, after 1 day, read-out: mortality

`CCON=Cc1cccc(COc2c(Cl)cc(OCC=C(Cl)Cl)cc2Cl)c1` [(378), 3-((2,6-dichloro-4-(3,3-dichloro-2-propenyloxy)phenoxy)methyl)benzaldehyde O-ethyloxime] was tested. Which mortality at 500 µg/mL did it give?
The mortality at 500 µg/mL was at least 80%.

Which mortality at 500 µg/mL does the source give for `CC(C)(C)C=NOCCCCCOc1c(Cl)cc(OCC=C(Cl)Cl)cc1Cl` [(545), trimethylacetaldehyde O-(5-(2,6-dichloro-4-(3,3-dichloro-2-propenyloxy)phenoxy)pentyl)oxime] here?
The mortality at 500 µg/mL was at least 80%.
